The results in this text go back to patent US6384061B1, “Hydantoin compounds and methods related thereto” (LG Chemical Ltd., priority 2000, dated 2002).

The target of one test is T1, Ras farnesyl transferase (Homo sapiens, UniProt P49354+P49356).
T1 construct: made in house
Kind of test: Ras farnesyl transferase inhibiting activity (filter-binding, tritium-farnesylpyrophosphate, Ras-CVLS substrate). Type of test: biochemical. The note with it: recombinant Ras farnesyl transferase, 30 minutes at 37° C., read-out: Ftase IC50. As for the experimental part:
The enzyme reaction was performed in 50 μl of 50 mM Sodium HEPES buffer solution containing 25 mmol of potassium chloride. 25 mmol of magnesium chloride, 10 mmol of DTT and 50 μmol of zinc chloride. 1.5 μmol of Ras substrate protein, 0.15 μmol of tritium-farnesylpyrophosphate and 4.5 nmol of farnesyl transferase were used.
More specifically, in the initial step, farnesyl transferase was added to the above buffer solution, reaction was maintained for 30 minutes at 37° C. and then the reaction was stopped by adding 1 ml of ethanol solution containing 1M HCl. The formed precipitates were adsorbed to GF/B filter using Hopper harvestor(Hopper #225V) for filter-binding, washed with ethanol, and then radioactivity of the dried filter was measured using LKB β counter. Enzyme titer was measured in the unsaturated state of substrate where the concentrations of Ras substrate protein and farnesyl transferase have quantitative relationship. Enzyme inhibiting activity was measured using less than 5% of total reaction solution of the compound according to the present invention dissolved in dimethylsulfoxide(DMSO) solution as a reagent. Enzyme inhibiting activity was represented by percentage of the amount of the farnesyl incorporated with the reagent to that without the reagent.

Test [1] has as its system intracellular Ras farnesyl transferase, Rat2 cell line. Kind of test: Intracellular Ras farnesyl transferase inhibiting activity in transformed Rat2 cells (35S-methionine labelling, Y13-259 immunoprecipitation, SDS-PAGE). Type of test: cell-based. Particulars: Rattus norvegicus; transformed Rat2 fibroblast cell line; concentration inhibiting 50% of farnesyl binding of Ras protein; read-out: Ftase CIC50. As for the experimental part:
In the present experiment, Rat2 cell line which expresses C-Harvey-Ras protein having transforming activity and Rat2 cell line(Korean patent application No. 97-14409) which is transformed with fused protein of H-Ras substituted with polybasic lysine domain at C-terminus of K-Ras were used. The experiment was performed by the modified Declue's method(Declue. J. E. et al., Cancer Research, 1991. 51, 712). Hereinafter, the experimental method will be described in more detail.
3×10^5 cells of transformed Rat2 fibroblast cell line were sprayed on 60 mm cell cultivation dish and cultivated for 48 hours in a cell incubator at 37° C. and after 50% or more of density was reached, it was treated with a reagent. The compound according to the present invention dissolved in dimethylsulfoxide(DMSO) was used as the reagent. 1% of dimethylsulfoxide was used in both control and experimental groups. After 4 hours from the treatment of the reagent, methionine labeled with 150 μCi of radioactive isotope, ^35S per 1 ml of medium, was added and after cultivating for 20 hours, the cells were washed with physiological saline water. The cells were lysed using 1 ml of cool cell lysis buffer solution(50 mM of Sodium Herpiss buffer solution containing 5 mmol of magnesium chloride. 1 mmol of DTT, 1% NP 40, 1 mmol of EDTA, 1 mmol of PMSF, 2 μmol of leupeptin, 2 μmol of pepstatin A and 2 μmol of antipain) and the supernatant was obtained by high-velocity centrifugation of 12,000 g×5 minutes. The amount of the labeled radioisotope of the supernatent was measured and standardized to obtain a quantitative result in immunoprecipitation reaction and then. Y13-259, monoclonal antiboby specifically binding to Ras protein(Furth, M. E. et al., J. Virol, 1982, 43, 294) was added and reacted for 15 hours at 4° C. Protein A bound to goat anti-murine Immunoglobulin antibody-agarose suspension was added to the solution and reacted for 1 hour at 4° C. and then, to remove unspecific binding product, immunoprecipitates were washed with buffer solution(50 mM Tris chloride buffer solution containing 50 mmol of sodium chloride, 0.5% of sodium dioxycolate, 0.5% of NP 40 and 0.1% of SDS). The precipitates were boiled in reagent buffer solution for electrophoresis and then, electrophoresis was performed using 13.5% of SDS polyacrylamide gel. After electrophoresis, the gel was fixed and dried. Then, the gel was exposed to X-ray film, developed and printed. From the result of the experiment, intensities of band of protein with and without farnesyl of Ras protein were measured, and the concentration of reagent inhibiting 50% of farnesyl binding was defined as CIC50, an intracellular Ras farnesyl transferase inhibiting activity.

The target of test [2] is T2, Geranylgeranyl transferase (Bos taurus, UniProt P29702+Q5EAD5).
T2 construct: Geranylgeranyl transferase was purified from bovine brain; from tissue; host or cells: bovine brain
Kind of test: Geranylgeranyl transferase inhibiting activity (geranylgeranyl pyrophosphate, Ras-CVIL substrate). The note with it: geranylgeranyl transferase purified from bovine brain, read-out: GGtase IC50. Type of test: biochemical. As for the experimental part:
To evaluate the selective enzyme inhibiting activity of the compound according to the present invention, inhibiting activity on geranylgeranyl transferase was measured. Geranylgeranyl transferase was purified from bovine brain with the method modified from Schber's method(Schber et al., J. Biol. Chem. 1990, 265, 14701). and substantially the same experiment as that of farnesyl transferase was performed using geranylgeranyl pyrophosphate and Ras-CVIL substrate protein under the similar condition to farnesyl transferase reaction.

On to `COC(=O)[C@H](CCSC)NC(=O)CC1C(=O)N(Cc2cncn2Cc2ccc(C#N)cc2)C(=O)N1Cc1cccc2ccccc12` (stereo partly drawn) [Compound 85, (2S)-(2-{1-[3-(4-cyano-benzyl)-3H-imidazol-4-ylmethyl]-3-naphthalen-1-ylmethyl-2,5-dioxo-imidazolidin-4-yl}-acetamino)-4-methylsulfanyl-butyric acid methyl ester], for which the IC50 on Ras farnesyl transferase is 0.2 µM; in test [1] it was under 50 µM; in test [2] it was over 10 µM.
Take `N#Cc1ccc(Cn2cncc2CN2C(=O)[C@H](CC(=O)N3CCOCC3)N(Cc3cccc4ccccc34)C2=O)cc1` [Compound 81, 4-{(5S)-[4-(2-morpholin-4-yl-2-oxo-ethyl)-3-naphthalen-1-ylmethyl-2,5-dioxo-imidazolidin-1-ylmethyl]-imidazol-1-ylmethyl}-benzonitrile]: the IC50 at Ras farnesyl transferase was 0.11 µM; in test [1], under 20 µM; in test [2], over 10 µM.
Regarding `CSCCC(NC(=O)CN1C(=O)N(CCCc2c[nH]cn2)C(=O)C1(C)c1cccc2ccccc12)C(=O)O` (stereo not drawn) [Compound 2, 2-(2-{3-[3-(1H-imidazol-4-yl)-propyl]-5-methyl-5-naphthalen-1-yl-2,4-dioxo-imidazolidin-1-yl}-acetylamino)-4-methylsulfanyl-butyric acid], the IC50 at Ras farnesyl transferase came out at 0.0008 µM; in test [1], 5 µM; in test [2] it was 3.4 µM.
Taken in the same sequence, the figures for `CC1(c2cccc3ccccc23)C(=O)N(CCCn2ccnc2)C(=O)N1Cc1ccc(CN)cc1` (stereo not drawn) [Compound 34, 1-(4-aminomethyl-benzyl)-3-(3-imidazol-1-yl-propyl)-5-methyl-5-naphthalen-1-yl-imidazolidin-2,4-dione] were 2.1 µM, under 20 µM and over 10 µM.
Taken in the same sequence, the figures for `CSCCC(NC(=O)CN1C(=O)N(CCn2ccnc2)C(=O)C1(C)c1cccc2ccccc12)C(=O)O` (stereo not drawn) [Compound 15, 2-{2-[3-(2-imidazol-1-yl-ethyl)-5-methyl-5-naphthalen-1-yl-2,4-dioxo-imidazolidin-1-yl]-acetylamino}-4-methylsulfanyl-butyric acid] were 0.002 µM, under 20 µM and over 10 µM.
As to `N#Cc1ccc(Cn2cncc2CN2C(=O)C(CC(=O)O)N(Cc3cccc4ccccc34)C2=O)cc1` (stereo not drawn) [Compound 78, {1-[3-(4-cyano-benzyl)-3H-imidazol-4-ylmethyl]-3-naphthalen-1-ylmethyl-2,5-dioxo-imidazolidin-4-yl}-acetic acid], the IC50 on Ras farnesyl transferase was 0.1 µM; in test [1] it was under 20 µM; in test [2], over 10 µM.
Taken in the same sequence, the figures for `O=C(OCc1ccccc1)N1CCC(Cn2cncc2CN2C(=O)CN(c3cccc4ccccc34)C2=O)CC1` [Compound 74, 4-[5-(3-naphthalen-1-yl-2,5-dioxo-imidazolidin-1-ylmethyl)-imidazol-1-ylmethyl]-piperidine-1-carboxylic acid benzyl ester] were 4 µM, under 50 µM and over 10 µM.
`CC1(c2cccc3ccccc23)C(=O)N(CCCn2ccnc2)C(=O)N1Cc1ccc(S(C)(=O)=O)c(C#N)c1` (stereo not drawn) [Compound 30, 5-[3-(3-imidazol-1-yl-propyl)-5-methyl-5-naphthalen-1-yl-2,4-dioxo-imidazolidin-1-ylmethyl]-2-methylsulfonyl-benzonitrile]: the values for the IC50 (on Ras farnesyl transferase; in test [1]; in test [2]) were 0.725 µM, under 20 µM and over 10 µM, respectively.
Turning to `COCCOCN1C(=O)N(CCCc2cncn2Cc2ccc(C#N)cc2)C(=O)C1(C)c1cccc2ccccc12` (stereo not drawn) [Compound 50, 4-(5-{3-[3-(2-methoxy-ethoxymethyl)-4-methyl-4-naphthalen-1-yl-2,5-dioxo-imidazolidin-1-yl]-propyl}-imidazol-1-ylmethyl)-benzonitrile], the values for the IC50 (on Ras farnesyl transferase; in test [1]; in test [2]) were 0.055 µM, under 20 µM and over 10 µM, respectively.
Taken in the same sequence, the figures for `COCCN(C)C(=O)CC1C(=O)N(Cc2cncn2Cc2ccc(Br)cc2)C(=O)N1Cc1cccc2ccccc12` (stereo not drawn) [Compound 83, 2-{1-[3-(4-bromo-benzyl)-3H-imidazol-4-ylmethyl]-3-naphthalen-1-ylmethyl-2,5dioxo-imidazolidin-4-yl}-N-(2-methoxy-ethyl)-N-methyl-acetamide] were 1.5 µM, over 50 µM and over 10 µM.
Consider `CC1(c2cccc3ccccc23)C(=O)N(CCCn2ccnc2)C(=O)N1Cc1ccccc1` (stereo not drawn) [Compound 16, 1-benzyl-3-(3-imidazol-1-yl-propyl)-5-methyl-5-naphthalen-1-yl-imidazolidin-2,4-dione], for which the results for the IC50 (on Ras farnesyl transferase; in test [1]; in test [2]) were 2.5 µM, under 20 µM and over 10 µM, respectively.
Taken in the same sequence, the figures for `CCN1C(=O)N(CCCc2cncn2Cc2ccc(C#N)cc2)C(=O)C1(C)c1cccc2ccccc12` (stereo not drawn) [Compound 47, 4-{5-[3-(3-ethyl-4-methyl-4-naphthalen-1-yl-2,5-dioxo-imidazolidin-1-yl)-propyl]-imidazol-1-ylmethyl}benzonitrile] were 0.018 µM, under 20 µM and over 10 µM.
Taken in the same sequence, the figures for `CC1(c2cccc3ccccc23)C(=O)N(CCCn2ccnc2)C(=O)N1Cc1cccc(C(=O)N2CCSCC2)c1` (stereo not drawn) [Compound 44, 3-(3-imidazol-1-yl-propyl)-1-[3-(thiomorpholine-4-carbonyl)-benzyl]-5-methyl-5-naphthalen-1-yl-imidazolidin-2,4-dione] were 8 µM, under 20 µM and over 10 µM.
Taken in the same sequence, the figures for `CSCc1ccc(CN2C(=O)N(CCCn3ccnc3)C(=O)C2(C)c2cccc3ccccc23)cc1` (stereo not drawn) [Compound 27, 3-(3-imidazol-1-yl-propyl)-1-(4-methylsulfanylmethyl-benzyl)-5-methyl-5-naphthalen-1-yl-imidazolidin-2,4-dione] were 0.21 µM, under 20 µM and over 10 µM.
Take `CCN1C(=O)N(Cc2cncn2Cc2ccc(C#N)cc2)C(=O)C1(C)c1cccc2ccccc12` (stereo not drawn) [Compound 61, 4-[5-(3-ethyl-4-methyl-4-naphthalen-1-yl-2,5-dioxo-imidazolidin-1-ylmethyl)-imidazol-1-ylmethyl]-benzonitrile]: the figures for the IC50 (on Ras farnesyl transferase; in test [1]; in test [2]) were 0.16 µM, under 20 µM and over 10 µM, respectively.
Taken in the same sequence, the figures for `O=C(OCc1ccccc1)N1CCC(Cn2cncc2CN2C(=O)CN(Cc3cccc4ccccc34)C2=O)CC1` [Compound 76, 4-[5-(3-naphthalen-1-ylmethyl-2,5-dioxo-imidazolidin-1-ylmethyl)-imidazol-1-ylmethyl]-piperidine-1-carboxylic acid benzyl ester] were 5 µM, over 50 µM and over 10 µM.
`CSCCC(NC(=O)CN1C(=O)N(Cc2cncn2Cc2ccc(C#N)cc2)C(=O)C1(C)c1cccc2ccccc12)C(=O)O` (stereo not drawn) [Compound 8, 2-(2-{3-[3-(4-cyano-benzyl)-imidazol-4-yl-methyl]-5-methyl-5-naphthalen-1-yl-2,4-dioxo-imidazolidin-1-yl}-acetylamino)-4-methylsulfanyl-butyric acid]: the IC50 on Ras farnesyl transferase was 0.014 µM; in test [1] it was under 20 µM; in test [2], over 10 µM.
